The subject of this assay is BRB breakdown in mice exposed to vascular endothelial growth factor (VEGF). Description: BRB breakdown quantitated with intraperitoneal [3H]-mannitol tracer in mice after intravitreal VEGF. Type of assay: in vivo, C57B/J6 mice. The note with it: gavage 50 mg/kg for three days prior to intravitreal VEGF 10^-6 M, [3H]-mannitol tracer at 6 hours. The text has this: Intraperitoneally administered radiolabeled tracer can be used to quantitate BRB breakdown in mice exposed to vascular endothelial growth factor (VEGF). This technique is particularly advantageous with neonatal mice because of the technical difficulty involved with intravascular injections. Also, the comparison of retinas from injected and control eyes to tissues without a blood-tissue barrier corrects for variations in the amount of isotope injected or absorbed into the circulation.
Ten six- to seven-week-old C57B/J6 mice (Jackson Labs, Bar Harbor, Me.) are weighed to determine the proper dosage of anesthesia and tracer required. Mice are anesthetized with a solution containing 25 mg/kg ketamine (Ketaset; Fort Dodge Animal Health, Fort Dodge, Iowa) and 4 mg/kg rompun (Tranquived; Vedco, St. Joseph, Mo.) diluted 1:10 in saline prior to injection. […]
One ml NCSII (Amersham, Chicago, Ill.) solubilizing solution is added to each vial and the vials are incubated overnight in a 50° C. water bath. […] The specimens are counted on a Wallace 1409 Liquid Scintillation Counter (Gaithersburg, :Md.).
The counts per mg tissue are determined for treated (with 4-pyridylmethyl-phthalazine derivative) and untreated retina, lung, and kidney. Ratios of these values for treated or untreated retina/lung or kidney and for lung/kidney are calculated. […]

As to 4-pyridylmethyl-phthalazine, the retina/kidney ratio (VEGF/vehicle-treated 0.6806±0.1060, Student-t value 0.0201) was 0.3881±0.0436. Further, the “retina/lung ratio (cpm per mg of retina/cpm per mg of lung)” value (VEGF/vehicle-treated 0.8785±0.0946, Student-t value 0.0467) came out at 0.6326±0.0656.

The values are drawn from patent US20050209237A1, “Method for decreasing capillary permeability in the retina” (priority 2002, published 2005).
